PubChem BioAssay (NCI)
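96-well plates; 48 h exposure; 5 concentrations. Endpoints by linear interpolation between flanking doses. Not reached: highest tested concentration assigned. GI50 is the concentration that inhibits growth by half. At the TGI there is no net growth.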

Experiments:
Test in all cases: NCI tumour cell line growth inhibition, 48 h
SNB-19 CNS = system: SNB-19 CNS
KM12 colon = system: KM12 colon
A549 NSCLC = system: A549 NSCLC
HCT-15 colon = system: HCT-15 colon
RPMI-8226 leukemia = system: RPMI-8226 leukemia
HL-60(TB) leukemia = system: HL-60(TB) leukemia
SK-MEL-2 melanoma = system: SK-MEL-2 melanoma
HT29 colon = system: HT29 colon
SK-MEL-5 melanoma = system: SK-MEL-5 melanoma
MOLT-4 leukemia = system: MOLT-4 leukemia
U251 CNS = system: U251 CNS
RXF 393 renal = system: RXF 393 renal
HCC-2998 colon = system: HCC-2998 colon
HOP-92 NSCLC = system: HOP-92 NSCLC
SF-295 CNS = system: SF-295 CNS
UACC-257 melanoma = system: UACC-257 melanoma
SK-OV-3 ovarian = system: SK-OV-3 ovarian
TK-10 renal = system: TK-10 renal
MALME-3M melanoma = system: MALME-3M melanoma
COLO 205 colon = system: COLO 205 colon
MDA-MB-231 breast = system: MDA-MB-231 breast
SNB-75 CNS = system: SNB-75 CNS
SF-268 CNS = system: SF-268 CNS
NCI-H522 lung = system: NCI-H522 lung
NCI-H460 lung = system: NCI-H460 lung
DU-145 prostate = system: DU-145 prostate
EKVX NSCLC = system: EKVX NSCLC
OVCAR-4 ovarian = system: OVCAR-4 ovarian
SR leukemia = system: SR leukemia
SK-MEL-28 melanoma = system: SK-MEL-28 melanoma
HS 578T breast = system: HS 578T breast
MCF7 breast = system: MCF7 breast
MDA-MB-435 = system: MDA-MB-435
IGROV1 ovarian = system: IGROV1 ovarian
SF-539 CNS = system: SF-539 CNS
786-0 renal = system: 786-0 renal
NCI/ADR-RES ovarian = system: NCI/ADR-RES ovarian
NCI-H23 lung = system: NCI-H23 lung
OVCAR-8 ovarian = system: OVCAR-8 ovarian
PC-3 prostate = system: PC-3 prostate
UO-31 renal = system: UO-31 renal
LOX IMVI melanoma = system: LOX IMVI melanoma
OVCAR-3 ovarian = system: OVCAR-3 ovarian
M14 melanoma = system: M14 melanoma
K-562 leukemia = system: K-562 leukemia
HCT-116 colon = system: HCT-116 colon
UACC-62 melanoma = system: UACC-62 melanoma
SW-620 colon = system: SW-620 colon
T-47D breast = system: T-47D breast
BT-549 breast = system: BT-549 breast
HOP-62 NSCLC = system: HOP-62 NSCLC
SN12C renal = system: SN12C renal
CAKI-1 renal = system: CAKI-1 renal
NCI-H226 lung = system: NCI-H226 lung
OVCAR-5 ovarian = system: OVCAR-5 ovarian
CCRF-CEM leukemia = system: CCRF-CEM leukemia
ACHN renal = system: ACHN renal
A498 renal = system: A498 renal
MDA-N = system: MDA-N

## C(=C1c2ccccc2-c2ccccc21)c1ccccn1
SNB-19 CNS
  GI50: 14 µM
  TGI: > 100 µM
KM12 colon
  GI50: 3.6 µM
  TGI: 14.2 µM
A549 NSCLC
  GI50: 7.69 µM
  TGI: 49.5 µM
HCT-15 colon
  GI50: 6.21 µM
  TGI: 49.3 µM
RPMI-8226 leukemia
  GI50: 16.2 µM
  TGI: > 100 µM
HL-60(TB) leukemia
  GI50: 4.52 µM
  TGI: 38.5 µM
SK-MEL-2 melanoma
  GI50: 12.7 µM
  TGI: 43 µM
HT29 colon
  GI50: 3.56 µM
  TGI: 16.7 µM
SK-MEL-5 melanoma
  GI50: 11.5 µM
  TGI: 26.5 µM
MOLT-4 leukemia
  GI50: 11.8 µM
  TGI: > 100 µM
U251 CNS
  GI50: 6.22 µM
  TGI: 70.9 µM
RXF 393 renal
  GI50: 7.58 µM
  TGI: 24.1 µM
HCC-2998 colon
  GI50: 13 µM
  TGI: 46.3 µM
HOP-92 NSCLC
  GI50: 7.43 µM
  TGI: 74.5 µM
SF-295 CNS
  GI50: 1.57 µM
  TGI: 5.97 µM
UACC-257 melanoma
  GI50: 20.1 µM
  TGI: > 100 µM
SK-OV-3 ovarian
  GI50: 13.1 µM
  TGI: 64.9 µM
TK-10 renal
  GI50: 19 µM
  TGI: 57.3 µM
MALME-3M melanoma
  GI50: 3.61 µM
  TGI: 27 µM
COLO 205 colon
  GI50: 8.56 µM
  TGI: 29.5 µM
MDA-MB-231 breast
  GI50: 12.3 µM
  TGI: 39.8 µM
SNB-75 CNS
  GI50: 16 µM
  TGI: > 100 µM
SF-268 CNS
  GI50: 12.4 µM
  TGI: 57.7 µM
NCI-H522 lung
  GI50: 11.1 µM
  TGI: 51.1 µM
NCI-H460 lung
  GI50: 5.87 µM
  TGI: 23 µM
DU-145 prostate
  GI50: 16.1 µM
  TGI: 44.9 µM
EKVX NSCLC
  GI50: 5.85 µM
  TGI: 38.3 µM
OVCAR-4 ovarian
  GI50: 15.3 µM
  TGI: > 100 µM
SR leukemia
  GI50: 3.76 µM
  TGI: 38.3 µM
SK-MEL-28 melanoma
  GI50: 8.12 µM
  TGI: 73 µM
HS 578T breast
  GI50: 6.21 µM
  TGI: 28.5 µM
MCF7 breast
  GI50: 2.71 µM
  TGI: 21.3 µM
MDA-MB-435
  GI50: 1.72 µM
  TGI: 3.69 µM
IGROV1 ovarian
  GI50: 4.89 µM
  TGI: 35.9 µM
SF-539 CNS
  GI50: 11.7 µM
  TGI: 50.2 µM
786-0 renal
  GI50: 14.7 µM
  TGI: 29.8 µM
NCI/ADR-RES ovarian
  GI50: 3.86 µM
  TGI: 31 µM
NCI-H23 lung
  GI50: 10.3 µM
  TGI: 96.7 µM
OVCAR-8 ovarian
  GI50: 15.6 µM
  TGI: 77.8 µM
PC-3 prostate
  GI50: 22.7 µM
  TGI: > 100 µM
UO-31 renal
  GI50: 8.64 µM
  TGI: 38.6 µM
LOX IMVI melanoma
  GI50: 8.52 µM
  TGI: 25.8 µM
OVCAR-3 ovarian
  GI50: 3.66 µM
  TGI: 15.9 µM
M14 melanoma
  GI50: 4.06 µM
  TGI: 18.2 µM
K-562 leukemia
  GI50: 3.93 µM
  TGI: > 100 µM
HCT-116 colon
  GI50: 5.07 µM
  TGI: 24.6 µM
UACC-62 melanoma
  GI50: 5.8 µM
  TGI: > 100 µM
SW-620 colon
  GI50: 4.03 µM
  TGI: 49.4 µM
T-47D breast
  GI50: 5.03 µM
  TGI: 50.9 µM
BT-549 breast
  GI50: 8.85 µM
  TGI: 53.1 µM
HOP-62 NSCLC
  GI50: 6.61 µM
  TGI: 60.8 µM
SN12C renal
  GI50: 12.1 µM
  TGI: > 100 µM
CAKI-1 renal
  GI50: 3.23 µM
  TGI: 19.6 µM
NCI-H226 lung
  GI50: 14.2 µM
  TGI: > 100 µM
OVCAR-5 ovarian
  GI50: 21.8 µM
  TGI: > 100 µM
CCRF-CEM leukemia
  GI50: 7.8 µM
  TGI: 46 µM
ACHN renal
  GI50: 26.6 µM
  TGI: > 100 µM
A498 renal
  GI50: 3.51 µM
  TGI: 23.7 µM

## CCOP(=O)(/C=C\n1cnc2c(=O)n(C(C)=O)c(N)nc21)OCC
MDA-N
  TGI: > 100 µM
SNB-19 CNS
  TGI: > 100 µM
KM12 colon
  TGI: > 100 µM
A549 NSCLC
  TGI: > 100 µM
HCT-15 colon
  TGI: > 100 µM
RPMI-8226 leukemia
  TGI: > 100 µM
HL-60(TB) leukemia
  TGI: > 100 µM
HT29 colon
  TGI: > 100 µM
SK-MEL-5 melanoma
  TGI: > 100 µM
MOLT-4 leukemia
  TGI: > 100 µM
U251 CNS
  TGI: > 100 µM
RXF 393 renal
  TGI: > 100 µM
SF-295 CNS
  TGI: > 100 µM
UACC-257 melanoma
  TGI: > 100 µM
SK-OV-3 ovarian
  TGI: > 100 µM
TK-10 renal
  TGI: > 100 µM
COLO 205 colon
  TGI: > 100 µM
MDA-MB-231 breast
  TGI: > 100 µM
SNB-75 CNS
  TGI: > 100 µM
NCI-H460 lung
  TGI: > 100 µM
DU-145 prostate
  TGI: > 100 µM
EKVX NSCLC
  TGI: > 100 µM
OVCAR-4 ovarian
  TGI: > 100 µM
SK-MEL-28 melanoma
  TGI: > 100 µM
MCF7 breast
  TGI: > 100 µM
MDA-MB-435
  TGI: > 100 µM
IGROV1 ovarian
  TGI: > 100 µM
SF-539 CNS
  TGI: > 100 µM
786-0 renal
  TGI: > 100 µM
NCI/ADR-RES ovarian
  TGI: > 100 µM
NCI-H23 lung
  TGI: > 100 µM
OVCAR-8 ovarian
  TGI: > 100 µM
PC-3 prostate
  TGI: > 100 µM
LOX IMVI melanoma
  TGI: > 100 µM
OVCAR-3 ovarian
  TGI: > 100 µM
M14 melanoma
  TGI: > 100 µM
K-562 leukemia
  TGI: > 100 µM
HCT-116 colon
  TGI: > 100 µM
UACC-62 melanoma
  TGI: > 100 µM
SW-620 colon
  TGI: > 100 µM
T-47D breast
  TGI: > 100 µM
BT-549 breast
  TGI: > 100 µM
HOP-62 NSCLC
  TGI: > 100 µM
SN12C renal
  TGI: > 100 µM
CAKI-1 renal
  TGI: > 100 µM
NCI-H226 lung
  TGI: > 100 µM
OVCAR-5 ovarian
  TGI: > 100 µM
CCRF-CEM leukemia
  TGI: > 100 µM
ACHN renal
  TGI: > 100 µM
A498 renal
  TGI: > 100 µM
